Here are results for 68 compounds from patent publication US20120165304A1, “6,7,8,9-Tetrahydro-5H-1,4,7,10a-tetraaza-cyclohept[f]indene derivatives, pharmaceutical compositions containing these compounds, their use and processes for preparing them” (BOEHRINGER INGELHEIM INTERNATIONAL GMBH, priority 2008, published 2012).

The target in this assay is human 5-HT2C receptor (Homo sapiens, UniProt P28335, I156V/I160V/N158S). The assay is described as follows: cell-based.
Chain of human 5-HT2C receptor (P28335 33-458 I156V/N158S/I160V limits assumed): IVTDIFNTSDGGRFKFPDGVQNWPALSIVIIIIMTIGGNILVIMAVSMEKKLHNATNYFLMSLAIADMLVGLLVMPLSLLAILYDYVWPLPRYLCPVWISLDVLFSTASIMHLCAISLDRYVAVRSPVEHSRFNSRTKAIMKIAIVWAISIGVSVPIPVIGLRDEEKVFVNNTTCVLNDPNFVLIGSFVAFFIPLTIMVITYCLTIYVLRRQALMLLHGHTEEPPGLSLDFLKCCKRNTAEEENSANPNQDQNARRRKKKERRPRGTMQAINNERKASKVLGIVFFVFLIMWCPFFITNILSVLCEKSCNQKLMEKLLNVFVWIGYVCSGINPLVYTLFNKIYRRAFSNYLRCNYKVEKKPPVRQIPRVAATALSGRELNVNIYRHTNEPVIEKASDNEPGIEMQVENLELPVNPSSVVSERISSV
The term EC50 denotes the concentration giving half of the maximal effect. `O=C(NC1(c2ccccc2)CC1)C1CN(c2c3c(nc4ccnn24)CCNCC3)C1` [Example 31.92]: the EC50 stood at 0.921 µM.

`CN1CCc2nc3ccnn3c(N3CC(C(=O)N4CCNCC4)C3)c2CC1` [Example 36.57] displayed an EC50 of 0.287 µM. This EC50 is about 3.2-fold lower than that of the compound before.

In turn, `C[C@@H]1CN(C(=O)C2CN(c3c4c(nc5ccnn35)CCN(C)CC4)C2)C[C@H](C)O1` [Example 36.21] showed an EC50 of 0.161 µM.

For the compound `Cc1ccccc1N1CCN(C(=O)C2CN(c3c4c(nc5ccnn35)CCNCC4)C2)CC1` [Example 37.37], the EC50 was found to be 0.009 µM.

For `O=C(C1CN(c2c3c(nc4ccnn24)CCNCC3)C1)N1CCCC(F)(F)C1` [Example 31.201], the EC50 amounted to 0.024 µM.

`CC1(C)CCN(C(=O)C2CN(c3c4c(nc5ccnn35)CCNCC4)C2)CC1` [Example 31.47] had an EC50 of 0.021 µM.

The compound `O=C(C1CN(c2c3c(nc4ccnn24)CCNCC3)C1)N1CCC(O)(c2ccc(C(F)(F)F)cc2)CC1` [Example 31.227] yielded a concentration giving a half-maximal response (EC50) of 0.092 µM.

With `O=C(C1CN(c2c3c(nc4ccnn24)CCNCC3)C1)N1CCC(N2CCOCC2)CC1` [Example 37.19], the EC50 is 0.005 µM.

`CN(C(=O)C1CCCN(c2c3c(nc4ccnn24)CCNCC3)C1)c1ccccc1` (centres unmarked) [Example 1.60] yielded a 50% effective concentration (EC50) of 1.59 µM.

Take `O=C(C1CN(c2c3c(nc4ccnn24)CCNCC3)C1)N1CC[C@@H](c2ccccc2)C1` [Example 31.223]: the midpoint of the response, the EC50, lay at 0.039 µM.

Compound `CCCC1CCN(C(=O)C2CN(c3c4c(nc5ccnn35)CCNCC4)C2)CC1` [Example 31.69] came in with an EC50 of 0.036 µM.

The compound `Cc1cnn2c(N3CCCCC3)c3c(nc12)CCNCC3` [Example 27.1] came in with an EC50 of 0.037 µM.

For the compound `O=C(C1CN(c2c3c(nc4ccnn24)CCNCC3)C1)N1CC=C(c2ccccc2)CC1` [Example 31.181], the EC50 was found to be 0.084 µM.

In turn, `N#CC1CCN(C(=O)C2CN(c3c4c(nc5ccnn35)CCNCC4)C2)C1` (centres unmarked) [Example 31.159] registered an EC50 of 0.032 µM.

Compound `FC(F)(F)c1cnc(OC2CN(c3c4c(nc5ccnn35)CCNCC4)C2)c(Cl)c1` [Example 20.7] showed an EC50 of 0.424 µM.

As for `Fc1cc(Cl)ccc1OCC1CN(c2c3c(nc4ccnn24)CCNCC3)C1` [Example 15.12], it took 0.009 µM to reach a half-maximal effect (EC50).

`O=C(C1CN(c2c3c(nc4ccnn24)CCNCC3)C1)N1CC2CC2(c2cccs2)C1` (centres unmarked) [Example 31.231] displayed an EC50 of 0.027 µM.

Compound `Cc1cc(OCC2CN(c3c4c(nc5ccnn35)CCNCC4)C2)ccc1F` [Example 15.4] displayed an EC50 of 0.025 µM. The EC50 values of the last two compounds are within 1.5-fold of each other.

Compound `COc1ccc(OCC2CN(c3c4c(nc5ccnn35)CCNCC4)C2)cc1` [Example 15.3] gave an EC50 of 0.01 µM.

With `Brc1cnn2c(N3CCC3)c3c(nc12)CCNCC3` [Example 2, 10-Azetidin-1-yl-3-bromo-6,7,8,9-tetrahydro-5H-1,4,7,10a-tetraaza-cyclohepta[f]indene], the EC50 was 0.004 µM.

In turn, `CCOC1CN(c2c3c(nc4ccnn24)CCNCC3)C1` [Example 20.2] had a 50% effective concentration (EC50) of 0.658 µM.

On to `Cc1cccc(CN(C)C(=O)C2CN(c3c4c(nc5ccnn35)CCNCC4)C2)c1` [Example 31.49], for which the EC50 was found to be 0.051 µM.

The compound `c1cc(OC2CN(c3c4c(nc5ccnn35)CCNCC4)C2)c2ccncc2c1` [Example 35.16] yielded an EC50 of 0.092 µM.

In turn, `O=C(C1CN(c2c3c(nc4ccnn24)CCNCC3)C1)N1CCC2(CCCCC2)CC1` [Example 31.35] registered an EC50 of 0.05 µM.

`CC1(C)CN(C(=O)C2CN(c3c4c(nc5ccnn35)CCNCC4)C2)Cc2ccccc21` [Example 31.177]: the EC50 was found to be 0.623 µM. This EC50 lies about 12-fold higher than the previous one.

Take `COCC1CN(c2c3c(nc4ccnn24)CCNCC3)C1` [Example 16, 10-(3-Methoxymethyl-azetidin-1-yl)-6,7,8,9-tetrahydro-5H-1,4,7,10a-tetraaza-cyclohepta[f]indene]: the EC50 is 0.211 µM.

`Clc1ccccc1OC1CCN(c2c3c(nc4ccnn24)CCNCC3)CC1` [Example 1.55] had a concentration for a half-maximal effect (EC50) of 2.78 µM. Compared with the last compound, the EC50 is about 13-fold higher.

`CC1(N)CCN(C(=O)C2CN(c3c4c(nc5ccnn35)CCNCC4)C2)CC1` [Example 37.18]: it took 0.002 µM to reach a half-maximal effect (EC50).

For the compound `CC(C)CCNC(=O)C1CN(c2c3c(nc4ccnn24)CCN(C)CC3)C1` [Example 36.56], the EC50 was found to be 0.217 µM. This EC50 lies about 110-fold higher than the previous one.

`COc1cccc(F)c1OCC1CN(c2c3c(nc4ccnn24)CCNCC3)C1` [Example 15.23] returned an EC50 of 0.047 µM.

For `O=C(C1CN(c2c3c(nc4ccnn24)CCNCC3)C1)N1CCC(Nc2ccccc2)CC1` [Example 37.43], a half-maximal effect (EC50) was put at 0.006 µM.

On to `CC(=O)NC1CCN(C(=O)C2CN(c3c4c(nc5ccnn35)CCNCC4)C2)CC1` [Example 37.29], for which the EC50 worked out at 0.01 µM.

Consider `CNCCN(C)C(=O)C1CN(c2c3c(nc4ccnn24)CCNCC3)C1` [Example 37.20], for which a half-maximal effect (EC50) was put at 0.026 µM. Compared with the last compound, the EC50 is about 2.6-fold higher.

In the case of `COCC1(CNC(=O)C2CN(c3c4c(nc5ccnn35)CCNCC4)C2)CCCC1` [Example 37.69], the EC50 came out at 0.073 µM. This EC50 is about 2.8-fold higher than that of the compound before.

In the case of `CC1(NC(=O)C2CN(c3c4c(nc5ccnn35)CCNCC4)C2)CCCC1` [Example 37.80], the EC50 was determined as 0.124 µM.

For `O=C(C1CN(c2c3c(nc4ccnn24)CCNCC3)C1)N1CCc2ccccc2CC1` [Example 31.33], the EC50 is 0.196 µM.

For `Cc1cnn2c(N3CC(C(=O)N4CCC5(CCOC5)CC4)C3)c3c(nc12)CCNCC3` [Example 31.240], the response was half-maximal at 0.029 µM (EC50).

Compound `C1=C(c2c3c(nc4ccnn24)CCNCC3)CCNC1` [Example 24, 10-(1,2,3,6-Tetrahydro-pyridin-4-yl)-6,7,8,9-tetrahydro-5H-1,4,7,10a-tetraaza-cyclohepta[f]indene] returned an EC50 of 0.588 µM.

`CN(Cc1ccc(F)cc1)C(=O)C1CN(c2c3c(nc4ccnn24)CCNCC3)C1` [Example 31.96]: the concentration for a half-maximal effect (EC50) came out at 0.026 µM. This EC50 lies about 23-fold lower than the previous one.

Compound `CNC1CCN(C(=O)C2CN(c3c4c(nc5ccnn35)CCNCC4)C2)CC1` [Example 37.14] returned an EC50 of 0.001 µM.

Regarding `O=C(NCC1CC1)C1CN(c2c3c(nc4ccnn24)CCNCC3)C1` [Example 37.75], the EC50 is 0.137 µM.

As to `OCC1CN(c2c3c(nc4ccnn24)CCNCC3)C1` [Example 1.5], the EC50 is 0.193 µM.

The compound `O=C(C1CN(c2c3c(nc4ccnn24)CCNCC3)C1)N1CCC(Cc2ccc(Cl)cc2)C1` (centres unmarked) [Example 31.120] had an EC50 of 0.103 µM. This EC50 lies about 1.9-fold lower than the previous one.

As to `C#CC1CCN(C(=O)C2CN(c3c4c(nc5ccnn35)CCN(C)CC4)C2)C1` (centres unmarked) [Example 39, (3-Ethynyl-pyrrolidin-1-yl)-[1-(7-methyl-6,7,8,9-tetrahydro-5H-1,4,7,10a-tetraaza-cyclohept[f]inden-10-yl)-azetidin-3-yl]-methanone], a half-maximal effect (EC50) was put at 0.078 µM. The EC50 values of the last two compounds are within 1.5-fold of each other.

With `CN1CCN(C(=O)C2CN(c3c4c(nc5ccnn35)CCNCC4)C2)CC1=O` [Example 37.100], the EC50 was determined as 0.014 µM. Against the preceding compound, the EC50 is about 5.6-fold lower.

`CC1CN(C(=O)C2CN(c3c4c(nc5ccnn35)CCN(C)CC4)C2)CC(C)N1C` (centres unmarked) [Example 36.7] gave an EC50 of 0.106 µM.

As to `CN1CCc2nc3ccnn3c(N3CC(C(=O)N4CCCNCC4)C3)c2CC1` [Example 36.59], the EC50 stood at 0.173 µM.

`CN(Cc1ccc(Cl)c(Cl)c1)C(=O)C1CCCN(c2c3c(nc4ccnn24)CCNCC3)C1` (centres unmarked) [Example 1.57] displayed an EC50 of 2.96 µM.

Turning to `O=C(C1CN(c2c3c(nc4ccnn24)CCNCC3)C1)N1CCC(c2ccccc2F)C1` (centres unmarked) [Example 31.116], the midpoint of the response, the EC50, lay at 0.06 µM.

Consider `O=C(NCCCC(F)(F)F)C1CN(c2c3c(nc4ccnn24)CCNCC3)C1` [Example 37.66], for which a half-maximal response (EC50) required 0.042 µM.

Compound `CCCCN1CCN(C(=O)C2CN(c3c4c(nc5ccnn35)CCNCC4)C2)CC1=O` [Example 37.51] yielded an EC50 of 0.011 µM.

Consider `CC(=O)N(C)c1ccc(OC2CN(c3c4c(nc5ccnn35)CCNCC4)C2)cc1` [Example 35.28], for which the response was half-maximal at 0.189 µM (EC50).

`CCN(Cc1ccccc1)C(=O)C1CN(c2c3c(nc4ccnn24)CCNCC3)C1` [Example 31.23] came in with a half-maximal effective concentration (EC50) of 0.346 µM.

Take `O=C(C1CN(c2c3c(nc4ccnn24)CCNCC3)C1)N1CCCNCC1` [Example 37.6]: a half-maximal effect (EC50) was put at 0.002 µM.

Turning to `CN1CCc2nc3ccnn3c(N3CC(C(=O)NC4CC(C)(C)NC(C)(C)C4)C3)c2CC1` [Example 36.9], the EC50 amounted to 0.379 µM.

For the compound `Cc1cnn2c(N3CC(C(=O)N4CCc5ccccc54)C3)c3c(nc12)CCNCC3` [Example 31.236], a half-maximal effect (EC50) was put at 0.031 µM.

As for `O=C(C1CN(c2c3c(nc4ccnn24)CCNCC3)C1)N1CCc2ccc(C(F)(F)F)cc21` [Example 31.157], the EC50 came to 0.034 µM. This EC50 and that of the compound before are within 1.5-fold of each other.

The compound `Cn1c(=O)ccc2c(OC3CN(c4c5c(nc6ccnn46)CCNCC5)C3)cccc21` [Example 35.1] returned an EC50 of 0.041 µM.

`c1ccc(Cn2c(C3CN(c4c5c(nc6ccnn46)CCNCC5)C3)nc3ccccc32)cc1` [Example 34.28] yielded an EC50 of 0.188 µM.

With `Fc1ccccc1OC1CN(c2c3c(nc4ccnn24)CCNCC3)C1` [Example 1.8], the EC50 was determined as 0.005 µM. This EC50 is about 38-fold lower than that of the compound before.

`CC(=O)N(C)C1CCN(C(=O)C2CN(c3c4c(nc5ccnn35)CCNCC4)C2)CC1` [Example 37.30] showed an EC50 of 0.008 µM.

`O=C(NCCC1CCCC1)C1CN(c2c3c(nc4ccnn24)CCNCC3)C1` [Example 37.62] yielded an EC50 of 0.01 µM. The EC50 values of the last two compounds are within 1.5-fold of each other.

`O=C(C1CN(c2c3c(nc4ccnn24)CCNCC3)C1)N1CCCC(F)(F)CC1` [Example 40, (4,4-Difluoro-perhydro-azepin-1-yl)-[1-(6,7,8,9-tetrahydro-5H-1,4,7,10a-tetraaza-cyclohept[f]inden-10-yl)-azetidin-3-yl]-methanone] returned an EC50 of 0.006 µM. This EC50 lies about 1.7-fold lower than the previous one.

`c1cc2nc3c(c(N4CCOCC4)n2n1)CCNCC3` [Example 7, 10-Morpholin-4-yl-6,7,8,9-tetrahydro-5H-1,4,7,10a-tetraaza-cyclohepta[f]indene] came in with an EC50 of 2.58 µM.

For `CN(Cc1ccc(C#N)cc1)C(=O)C1CN(c2c3c(nc4ccnn24)CCNCC3)C1` [Example 31.2], the EC50 worked out at 0.014 µM. This EC50 lies about 180-fold lower than the previous one.

Consider `O=C(C1CN(c2c3c(nc4ccnn24)CCNCC3)C1)N1CCc2ccccc21` [Example 31.143], for which the EC50 was determined as 0.049 µM.

The compound `COc1ccc2c(c1)CCN2C(=O)C1CN(c2c3c(nc4c(C)cnn24)CCNCC3)C1` [Example 31.247] showed an EC50 of 0.028 µM.

The compound `COc1cc(Cl)ccc1OC1CN(c2c3c(nc4ccnn24)CCNCC3)C1` [Example 35.21] gave an EC50 of 0.075 µM.
